These results are taken from ChEMBL document CHEMBL3877286, “Green fluorescent protein chromophore derivatives as a new class of aldose reductase inhibitors” (Eur J Med Chem, 2017).

Structures are written as SMILES.

Experiment [1] addresses T1, Aldo-keto reductase family 1 member B1 (Homo sapiens, UniProt P15121). As to the kind of experiment: Inhibition of recombinant human ALR2 assessed as reduction in NADPH oxidation measured for 5 mins in presence of D,L-glyceraldehyde by spectrophotometric method.
The target of experiment [2] is T1, Aldo-keto reductase family 1 member B1. Kind of experiment: Potency index, ratio of sorbinil IC50 to compound IC50 for recombinant human ALR2.
Experiment [3] shares this target. Kind of experiment: Inhibition of recombinant human ALR2 assessed as reduction in NADPH oxidation at 13 uM measured for 5 mins in presence of D,L-glyceraldehyde by spectrophotometric method relative to control.

For the compound `CCOC(=O)CN1C(=O)/C(=C/c2ccc(O)cc2)N=C1C`, the IC50 in experiment [1] worked out at 23000 nM.
Still for that read-out and setting: next, `CC1=N/C(=C\c2ccc(F)cc2)C(=O)N1CC(=O)O`: 650 nM.
As for `CC1=N/C(=C\c2ccccc2)C(=O)N1CC(=O)O`, the IC50 in experiment [1] stood at 580 nM.
Still for that read-out and setting: in the case of `CC1=N/C(=C\c2ccc3ccccc3c2)C(=O)N1CC(=O)O` it was 100 nM.
On the same count and under the same terms, in the case of `CC1=N/C(=C\c2cccc(O)c2)C(=O)N1CC(=O)O` it was 3200 nM; in that of `CC1=N/C(=C\c2ccc(Cl)cc2)C(=O)N1CC(=O)O`, 270 nM; in that of `CC1=N/C(=C\c2cc(C)c(O)c(C)c2)C(=O)N1CC(=O)O`, 130 nM.
Take `COc1ccc(/C=C2\N=C(C)N(CC(=O)O)C2=O)cc1`: the IC50 in experiment [1] worked out at 510 nM.
With `CC1=N/C(=C\c2ccc(OCC(=O)O)cc2)C(=O)N1CC(=O)O`, the IC50 in experiment [1] is 310 nM.
For `CCOC(=O)CN1C(=O)/C(=C/c2ccccc2)N=C1C`, in experiment [1], the IC50 was determined as 112000 nM.
The same measure, in the same setting: next, `CCOC(=O)COc1ccc(/C=C2\N=C(C)N(CC(=O)OCC)C2=O)cc1`: 109000 nM; `CC1=N/C(=C\c2cccc3ccccc23)C(=O)N1CC(=O)O`: 540 nM.
As to `CC1=N/C(=C\c2ccc(O)cc2)C(=O)N1CC(=O)O`, the Ratio IC50 in experiment [2] came to 6. In experiment [1], the IC50 was found to be 360 nM.
As to `CCOC(=O)CN1C(=O)/C(=C/c2ccc(Cl)cc2)N=C1C`, the inhibition in experiment [3] turned out to be 16%.
As to `CC1=N/C(=C\c2ccc(O)cc2)C(=O)N1CCC(=O)O`, the IC50 in experiment [1] worked out at 10700 nM.
Still for that read-out and setting: in the case of `CC1=N/C(=C\c2ccc(Br)cc2)C(=O)N1CC(=O)O` it was 240 nM.
